We go through one compound from patent US20250281453A1, “COMBINATION THERAPIES COMPRISING QTX125” (QUIMATRYX, S.L., priority 2022, published 2025).

A word on the EC50: it is the concentration at which the effect is half-maximal.

Each structure is given as a SMILES string.

Holding throughout (assay): Cell viability, ALAMAR blue assay, monotherapy
Common to all, as to type: cell-based
On the technique in general: Resazurin is reduced to fluorescent resorufin, in cell work by metabolically active cells.

The subject of series [1] is SK-OV-3 ovarian cancer cells. On the procedure:
(§1) In brief, HCT-116, MiaPaCa-2 and Panc-1 cells were thawed in high glucose DMEM (Sigma D5796) with 10% heat-inactivated Foetal Calf Serum (FCS) (PAA, A15-101)). Hep-G2 and SK-Hep1 cells were thawed in Minimum Essential Media (MEM) (Sigma M2279) with 1% non-essential amino acids (Sigma M7145), 2 mM Glutamine (Sigma G7513) and 10% FCS. SK-OV-3 cells were thawed in McCoy's 5A medium (Sigma, M8403) with 15% FCS. All cells were passaged by washing once in cation-free dPBS (Sigma, D1408), and incubated for 3 minutes with trypsin ([0.5 μg/ml]/EDTA [0.2 μg/ml] (Sigma, T4174) in dPBS). Passage was completed at 37° C., and cells were transferred to the appropriate media. Prior to seeding at defined cell density, cells were recovered in medium, centrifuged and resuspended for counting.
(§2) To prepare cells for viability assays, cells were transferred into 96 well tissue culture plates (Cultek), and resuspended in 100 µL at the following densities: 10,000 cells/well (Hep-G2 and MiaPaCa-2), 5000 cells/well (Panc-1 and SK-OV-3) or 3000 cells/well (HCT-116). Following 24 hours of incubation, media was removed and replaced with 100 µL media spiked with QTX125 and the test chemotherapeutic agents. Stock solutions for the agents used in this study are shown below in Table 1. Cells were incubated for a further 72 hours before cell viability was assessed using both ALAMAR® and hexosaminidase assays.
(§3) For the ALAMAR® blue assay, media containing QTX125 and the test chemotherapeutic agents was removed, and cells were stained using ALAMAR® blue (BioSource DAL 1100) for 4 hours at 37° C., following the manufacturer's instructions. Relative fluorescent intensity was measured using a Cytofluor® plate reader (Millipore) at 535/590 nm (Excitation/emission). This measure directly correlates with the number of viable cells present in each well.
(§4) A number of appropriate control samples were included. First, absorbance values measured in reagent ‘blank’ wells (containing cell culture medium and colorimetric agent only) were subtracted from ‘test’ sample-containing wells. ‘Blank’ absorbance values were routinely between 5 and 10% of the values recorded in test wells. Absorbance values recorded in test wells were then compared against wells containing (i) cells stimulated with QTX125 only; (ii) cells stimulated with sorafenib, gemcitabine or bortezomib only and/or (iii) unstimulated cells, as appropriate.
(§5) Control values were normalised to 100% and percentage (%) viability was calculated. Data were used to plot log dose-response curves using a sigmoid dose-response (variable slope) equation. EC50 values were obtained using Equation 1, where ‘X’ is the logarithmic concentration; ‘Y’ is the response output and it is assumed that Y starts at bottom of the graph and reaches the top with an overall sigmoid shape.
(§6) Prior to assessing the oncolytic efficacy of QTX125-containing combination therapies, the oncolytic effect of each test agent was assessed in isolation. Dose-response curves were produced by serial dilution (1:1), thereby allowing monotherapy EC50 values to be calculated.
(§7) Chemotherapeutic agents were added to wells at a starting concentration of 100 μM. However, it was quickly determined that it was not possible to use this range for all chemotherapeutic agents tested. An optimization study was therefore completed to identify suitable maximum (‘high’) doses for each agent and in each individual cell line.

Series [2] relates to HCT-116 colonic cancer cells. On the procedure:
as §1, §2, §3, §4, §5, §6, §7

In series [3] the test system is Hep-G2 hepatic cancer cells. On the procedure:
as §1, §2, §3, §4, §5, §6, §7

Series [4] relates to Panc-1 pancreatic cancer cells. As to the method: as §1, §2, §3, §4, §5, §6, §7
The test system of series [5] is MiaPaCa-2 pancreatic cancer cells. As to the method: as §1, §2, §3, §4, §5, §6, §7
[6] abbreviates: Homo sapiens, 72 h, read-out: EC50 dose of monotherapy.
Setting [7] is: 72 hours of high-dose monotherapy (Table 2: QTX125 100, sorafenib 100, gemcitabine 100, bortezomib 1 μM).

On to `O=C(NO)c1ccc(CNC(=O)c2[nH]c(-c3ccc(O)cc3)cc2-c2ccoc2)cc1` [QTX125, 3-(3-Furyl)-N-{4-[(hydroxyamino)carbonyl]benzyl}-5-(4-hydroxyphenyl)-1 Hpyrrole-2-carboxamide], for which the “percentage (%) cell viabilities” value in series [1] (72 hours of high-dose monotherapy (Table 2: QTX125 10, sorafenib 100, gemcitabine 10, bortezomib 1 μM)) stood at 0.0%; in series [2] (72 hours of high-dose monotherapy (Table 2: QTX125 1, sorafenib 100, gemcitabine 10, bortezomib 1 μM)), 0.0%; in series [3] (72 hours of high-dose monotherapy (Table 2: QTX125 5, sorafenib 100, gemcitabine 100, bortezomib 1 μM)), 0.0%; in series [4] (setting [7]) it was 0.0%; in series [5] (setting [7]), 0.0%. Also, the EC50 in series [1] (setting [6]) was 3 ± 0.4 µM; in series [2] (setting [6]), 0.33 µM; in series [3] (Homo sapiens, HepG2, 72 h, read-out: EC50 dose of monotherapy), 0.91 ± 0.2 µM; in series [4] (setting [6]) it was 1.4 ± 0.15 µM; in series [5] (Homo sapiens, MIA PaCa-2, 72 h, 72 h, read-out: EC50 dose of monotherapy), 1.79 ± 0.05 µM.
